From patent publication US11317626B2, “Forchlorfenuron mixtures and uses thereof” (Valent BioSciences LLC, priority 2018, dated 2022)

Experiments:
Format in all cases: in vivo
Concord grape vines [1] = assay: Example 1: bud break and shoot growth of potted Concord grape vines in greenhouse; conditions: for 0-50% BB: days from bud break on the first plant to 50% of the plants with bud break, synchrony
Text: An aqueous 50% hydrogen cyanamide solution (Sigma-Aldrich, St. Louis, Mo. USA) was used as the source of hydrogen cyanamide (“HC”). The commercial product, Dormex® contains 50% hydrogen cyanamide (w/v) in an aqueous base.
Erger® was used as the source of 15-0-0 fertilizer. Erger® contains 15% total nitrogen as 3.1% ammoniacal nitrogen, 5.8% nitrate nitrogen, 6.1% urea nitrogen and 3.3% calcium derived from a mixture of ammonium nitrate, calcium nitrate and urea. Erger® is always used in combination with either 20% (w/v) Ca(NO3)2 or Activ Erger®. In the following examples, 15-0-0 fertilizer was applied at a rate of 208,340 ppm calcium nitrate, 15,060 ppm nitrogen nitrate and 15,660 ppm urea or 239,060 ppm total.
CAN-17 was used as the 17-0-0 fertilizer. CAN-17 contains 17% total nitrogen as 4.6% ammonium nitrogen and 11.6% nitrate nitrogen and 1.3% urea nitrogen and 8.8% calcium derived from ammonium nitrate and calcium nitrate. CAN-17 is available from J. R. Simplot Company (Boise, Id., USA). In the following examples, 17-0-0 fertilizer was applied at a rate of 118,200 ppm calcium nitrate and 78,900 ppm nitrogen nitrate or 197,100 ppm total. See, Table 1 below, for ratios of forchlorfenuron (“CPPU”) to fertilizer that were used in the following examples.
To assess the ability of mixtures of the invention to promote and synchronize bud break these mixtures were applied to Concord grape vines and examined for bud break (initiation of growth) and subsequent shoot development. Specifically, dormant bare-rooted Concord grape vines were planted in pots containing Pro-Mix® BX potting soil (Pro-Mix is a registered trademark of and available from Premier Horticulture Ltd.) and pruned to five nodes on a single shoot of one-year-old wood. Nodes are regions on the shoot where leaves arise from the shoot and buds are present at the axis of the shoot:leaf interface. The bud found at the shoot:leaf interface develops into the vines new shoot growth. Aqueous solutions of forchlorfenuron, HC, 15-0-0 fertilizer, 17-0-0 fertilizer, and mixtures thereof were each applied individually or sequentially or co-applied to the first-year wood of separate Concord grape vines. Plants were grown in a heated greenhouse for 49 days and evaluated for percent of vines showing bud break, periodically between seven days after application and the conclusion of the experiment. Percent bud break is determined by the number of plants that have at least one bud broken divided by the total number of plants per treatment times 100. At 51 days after treatment (“DAT”), the plants were sacrificed and measured for total number of flower clusters, total new shoot length, longest new shoot, combined new shoot fresh weight. New shoot growth is the growth arising from the dormant buds not including the woody growth that was planted and gave rise to the new growth.
(§1) To determine if the mixtures provided unexpected results, the observed combined efficacy (“OCE”) was divided by the expected combined efficacy (“ECE”) wherein the expected ECE is calculated by the Abbott method: ECE=A+B−(AB/100), • wherein ECE is the expected combined efficacy and in which A and B are the speed of bud break relative to control, the number of buds broken per plant relative to control, shoot length relative to control or shoot weight relative to control given by the single active ingredients. If the ratio between the OCE of the mixture and the ECE of the mixture is greater than 1, then greater than expected interactions are present in the mixture. (Gisi, Synergistic Interaction of Fungicides in Mixtures, The American Phytopathological Society, 86:11, 1273-1279,1996). Results

Malus (apple) rootstocks = assay: Example 4: bud break and shoot growth of Malus (apple) rootstocks
Procedure: as §1
To assess the ability of mixtures of the invention to promote and synchronize bud break, these mixtures were applied to field-grown Malus (apple) rootstocks and examined for bud break (initiation of growth) and subsequent shoot development. Forchlorfenuron, Dormex (50% HC), 15-0-0 (Erger®) and 17-0-0 fertilizers (CAN17), and mixtures thereof were each applied individually or sequentially (co-applied) to the shoots of potted Malus rootstocks that were pruned to a height of 25 centimeters. Plants were evaluated for bud break at 28 days after treatment.

Concord grape vines [2] = assay: Example 2: Concord grape vines greenhouse, forchlorfenuron and 17-0-0 fertilizer (CAN17) study
Text: (§2) To assess the ability of mixtures of the invention to promote and synchronize bud break these mixtures were applied to Concord grape vines and examined for bud break (initiation of growth) and subsequent shoot development. Specifically, dormant bare-rooted Concord grape vines were planted in pots containing Pro-Mix® BX potting soil (Pro-Mix is a registered trademark of and available from Premier Horticulture Ltd.) and pruned to five nodes on a single shoot of one-year-old wood. Nodes are regions on the shoot where leaves arise from the shoot and buds are present at the axis of the shoot:leaf interface. The bud found at the shoot:leaf interface develops into the vines new shoot growth. Aqueous solutions of forchlorfenuron, HC, 15-0-0 fertilizer, 17-0-0 fertilizer, and mixtures thereof were each applied individually or sequentially or co-applied to the first-year wood of separate Concord grape vines. […] Percent bud break is determined by the number of plants that have at least one bud broken divided by the total number of plants per treatment times 100. […] New shoot growth is the growth arising from the dormant buds not including the woody growth that was planted and gave rise to the new growth.
as §1
(§3) The experiment from Example 1 was repeated with varying quantities of forchlorfenuron and fertilizers in a greenhouse experiment.

[3] = test system: Prunus (stone fruit) plants; assay: Example 5: bud break and shoot growth of Prunus (stone fruit) plants in greenhouse
Procedure: as §1
(§4) To assess the ability of mixtures of the invention to promote and synchronize bud break, these mixtures were applied to Prunus (stone fruit) plants in the greenhouse and examined for bud break (initiation of growth) and subsequent shoot development. Forchlorfenuron, Dormex (50% HC), 15-0-0 (Erger®) and 17-0-0 fertilizers (CAN17), and mixtures thereof were each applied individually or sequentially (co-applied) to the shoots of Prunus plants. Plants were evaluated for bud break at 28 days after treatment.

Concord grape vines [4] = assay: Example 2: Concord grape vines greenhouse, forchlorfenuron and 15-0-0 fertilizer (Erger) study
Text: as §2, §1, §3

[5] = test system: Flame seedless grape vines; assay: Example 3: bud break on spurs of field-grown Flame seedless grape vines; conditions: 41 days post application
Procedure: as §1
as §4, with “field-grown Flame seedless grape vines” for “Prunus (stone fruit) plants”, “Thermal, Calif.,” for “the greenhouse”, “separate spurs” for “shoots”, “Flame seedless grape vines.” for “Prunus plants.”, “41” for “28”, “treatment. Results of these evaluations can be seen below in Tables 11 and 12.” for “treatment.”

[6] = days after treatment to 50% bud break
[7] = combined shoot fresh weight, 52 days after planting

## N#CN [1% HC (v/v), hydrogen cyanamide]
Concord grape vines [1]; 31 days after treatment, plants with at least one bud showing a green shoot emerging
  Percentage of Concord Grape Vines with Dormancy Relieved: 100%
Concord grape vines [1]; 34 days after treatment
  Percentage of Concord Grape Vines with Dormancy Relieved: 100%
Concord grape vines [1]; 36 days after treatment
  Percentage of Concord Grape Vines with Dormancy Relieved: 100%
Concord grape vines [1]; 38 days after treatment
  Percentage of Concord Grape Vines with Dormancy Relieved: 100%
Concord grape vines [1]; 43 days after treatment
  Percentage of Concord Grape Vines with Dormancy Relieved: 100%
Concord grape vines [1]; 45 days after treatment
  Percentage of Concord Grape Vines with Dormancy Relieved: 100%
Concord grape vines [1]; 51 days after treatment
  Percentage of Concord Grape Vines with Dormancy Relieved: 100%
Concord grape vines [1]; 51 days post-treatment
  Broken Buds/Plant: 2.50
  FW/Broken Bud: 11.18 grams
Concord grape vines [1]; combined shoot fresh weight at 51 DAT
  FW/Plant: 27.95 grams
Concord grape vines [1]; days from application to 50% of the plants showing at least one bud broken
  50% BB: 15 days
Concord grape vines [1]
  0-50% BB: 4 days
Concord grape vines [1]; listed as 1% HC
  0-50% BB: four
Malus (apple) rootstocks; combined new shoot growth, harvest at 28 days
  Fresh Weight at Harvest: 7.99 grams
Malus (apple) rootstocks; [6]
  50% BB: 12 days
Malus (apple) rootstocks; harvest at 28 days
  Average Number of Broken Buds Per Malus Plant at Harvest: 8.13
  Fresh Weight per Bud at Harvest: 0.98 grams
Malus (apple) rootstocks; harvest at 28 days, rootstocks pruned to 25 centimeters
  Average Number of Broken Nodes Per Centimeter of Shoot at Harvest: 0.325
Concord grape vines [2]; [7]
  Fresh Weight at Harvest: 37.01 grams
Concord grape vines [2]; [6]
  50% BB: 17 days
Concord grape vines [2]; harvest 52 days after planting
  Average Number of Broken Nodes Per Plant at Harvest: 2.38
[3]; combined new shoot fresh weight, harvest at 28 days
  Fresh Weight at Harvest, FW: 4.76 grams
[3]; [6]
  50% BB: 7 days
Concord grape vines [4]; [7]
  Fresh Weight at Harvest: 42.21 grams
Concord grape vines [4]; [6]
  50% BB: 17 days
Concord grape vines [4]; harvest 52 days after planting
  Average Number of Broken Nodes Per Plant at Harvest: 2.13
[5]
  Broken Buds per Spur (OCE): 1.48
  Percentage of Spurs With At Least One Bud Broken (OCE): 72%
